ChEMBL document CHEMBL5505958, “Optimization of sequence and chiral content enhances therapeutic potential of tilapia piscidin peptides” (Eur J Med Chem, 2024)
Converted amounts (≈) assume the structure as drawn.

Tests used:
Klebsiella pneumoniae [1] = experiment: Bactericidal activity against Klebsiella pneumoniae 10692 assessed as inhibition of bacterial growth incubated for 16 to 20 hrs; type: functional; settings: time 16-20 hrs
Salmonella typhimurium [2] = experiment: Antibacterial activity against Salmonella typhimurium DT104 assessed as inhibition of bacterial growth incubated for 16 to 20 hrs in presence of human serum; type: functional, Salmonella enterica subsp. enterica serovar Typhimurium; settings: Salmonella enterica, time 16-20 hrs
Pseudomonas aeruginosa [3] = experiment: Bactericidal activity against Pseudomonas aeruginosa 19660 assessed as inhibition of bacterial growth incubated for 16 to 20 hrs; type: functional; settings: time 16-20 hrs
Klebsiella aerogenes [4] = experiment: Antibacterial activity against Enterobacter aerogenes 15630 assessed as inhibition of bacterial growth incubated for 16 to 20 hrs; type: functional; settings: time 16-20 hrs
Klebsiella pneumoniae [5] = experiment: Bactericidal activity against Klebsiella pneumoniae BAA 2473 assessed as inhibition of bacterial growth incubated for 16 to 20 hrs; type: functional; settings: time 16-20 hrs
Klebsiella aerogenes [6] = experiment: Bactericidal activity against Enterobacter aerogenes 15630 assessed as inhibition of bacterial growth incubated for 16 to 20 hrs; type: functional; settings: time 16-20 hrs
Salmonella typhimurium [7] = experiment: Antibacterial activity against Salmonella typhimurium DT104 assessed as inhibition of bacterial growth incubated for 16 to 20 hrs; type: functional, Salmonella enterica subsp. enterica serovar Typhimurium; settings: Salmonella enterica, time 16-20 hrs
Acinetobacter baumannii [8] = experiment: Bactericidal activity against Acinetobacter baumannii 10591 assessed as inhibition of bacterial growth incubated for 16 to 20 hrs in presence of human serum; type: functional; settings: time 16-20 hrs
Klebsiella pneumoniae [9] = experiment: Antibacterial activity against Klebsiella pneumoniae 10692 assessed as inhibition of bacterial growth incubated for 16 to 20 hrs; type: functional; settings: time 16-20 hrs
Klebsiella oxytoca [10] = experiment: Antibacterial activity against Klebsiella oxytoca 13985 assessed as inhibition of bacterial growth incubated for 16 to 20 hrs; type: functional; settings: time 16-20 hrs
Pseudomonas aeruginosa [11] = experiment: Bactericidal activity against Pseudomonas aeruginosa 19660 assessed as inhibition of bacterial growth incubated for 16 to 20 hrs in presence of human serum; type: functional; settings: time 16-20 hrs
Yersinia enterocolitica [12] = experiment: Bactericidal activity against Yersinia enterocolitica 13999 assessed as inhibition of bacterial growth incubated for 16 to 20 hrs; type: functional; settings: time 16-20 hrs
Klebsiella pneumoniae [13] = experiment: Antibacterial activity against Klebsiella pneumoniae TL 297 assessed as inhibition of bacterial growth incubated for 16 to 20 hrs in presence of human serum; type: functional; settings: time 16-20 hrs
Klebsiella oxytoca [14] = experiment: Antibacterial activity against Klebsiella oxytoca 13985 assessed as inhibition of bacterial growth incubated for 16 to 20 hrs in presence of human serum; type: functional; settings: time 16-20 hrs
Salmonella enterica [15] = experiment: Bactericidal activity against Salmonella enterica 15455 assessed as inhibition of bacterial growth incubated for 16 to 20 hrs in presence of human serum; type: functional; settings: time 16-20 hrs
Salmonella enterica [16] = experiment: Bactericidal activity against Salmonella enterica 15455 assessed as inhibition of bacterial growth incubated for 16 to 20 hrs; type: functional; settings: time 16-20 hrs
Escherichia coli [17] = experiment: Bactericidal activity against Escherichia coli 10675 assessed as inhibition of bacterial growth incubated for 16 to 20 hrs; type: functional; settings: time 16-20 hrs
Vibrio vulnificus [18] = experiment: Bactericidal activity against Vibrio vulnificus 204 assessed as inhibition of bacterial growth incubated for 16 to 20 hrs; type: functional; settings: time 16-20 hrs
Enterococcus faecalis [19] = experiment: Bactericidal activity against Enterococcus faecalis 10066 assessed as inhibition of bacterial growth incubated for 16 to 20 hrs; type: functional; settings: time 16-20 hrs
Vibrio vulnificus [20] = experiment: Antibacterial activity against Vibrio vulnificus 204 assessed as inhibition of bacterial growth incubated for 16 to 20 hrs in presence of human serum; type: functional; settings: time 16-20 hrs
Escherichia coli [21] = experiment: Bactericidal activity against Escherichia coli 10675 assessed as inhibition of bacterial growth incubated for 16 to 20 hrs in presence of human serum; type: functional; settings: time 16-20 hrs
Escherichia coli [22] = experiment: Antibacterial activity against Escherichia coli 10675 assessed as inhibition of bacterial growth incubated for 16 to 20 hrs; type: functional; settings: time 16-20 hrs
Salmonella typhimurium [23] = experiment: Bactericidal activity against Salmonella typhimurium DT104 assessed as inhibition of bacterial growth incubated for 16 to 20 hrs in presence of human serum; type: functional, Salmonella enterica subsp. enterica serovar Typhimurium; settings: Salmonella enterica, time 16-20 hrs
Acinetobacter baumannii [24] = experiment: Bactericidal activity against Acinetobacter baumannii 10591 assessed as inhibition of bacterial growth incubated for 16 to 20 hrs; type: functional; settings: time 16-20 hrs
Staphylococcus aureus [25] = experiment: Antibacterial activity against Staphylococcus aureus 10780 assessed as inhibition of bacterial growth incubated for 16 to 20 hrs; type: functional; settings: time 16-20 hrs
Acinetobacter baumannii [26] = experiment: Antibacterial activity against Acinetobacter baumannii 10591 assessed as inhibition of bacterial growth incubated for 16 to 20 hrs in presence of human serum; type: functional; settings: time 16-20 hrs
Enterococcus faecium [27] = experiment: Bactericidal activity against Enterococcus faecium 10067 assessed as inhibition of bacterial growth incubated for 16 to 20 hrs; type: functional; settings: time 16-20 hrs
Acinetobacter baumannii [28] = experiment: Antibacterial activity against Acinetobacter baumannii 10591 assessed as inhibition of bacterial growth incubated for 16 to 20 hrs; type: functional; settings: time 16-20 hrs
[29] = tested on: Staphylococcus haemolyticus; experiment: Antibacterial activity against Staphylococcus haemolyticus 15237 assessed as inhibition of bacterial growth incubated for 16 to 20 hrs; type: functional; settings: time 16-20 hrs
Enterococcus faecium [30] = experiment: Antibacterial activity against Enterococcus faecium 10067 assessed as inhibition of bacterial growth incubated for 16 to 20 hrs in presence of human serum; type: functional; settings: time 16-20 hrs
Enterococcus faecium [31] = experiment: Antibacterial activity against Enterococcus faecium 10067 assessed as inhibition of bacterial growth incubated for 16 to 20 hrs; type: functional; settings: time 16-20 hrs
Vibrio vulnificus [32] = experiment: Antibacterial activity against Vibrio vulnificus 204 assessed as inhibition of bacterial growth incubated for 16 to 20 hrs; type: functional; settings: time 16-20 hrs
Rhizopus arrhizus [33] = experiment: Fungicidal activity against Rhizopus oryzae 34550 assessed as inhibition of fungal growth incubated for 16 to 20 hrs in presence of human serum; type: functional; settings: time 16-20 hrs
Salmonella enterica [34] = experiment: Antibacterial activity against Salmonella enterica 15455 assessed as inhibition of bacterial growth incubated for 16 to 20 hrs; type: functional; settings: time 16-20 hrs
Rhizopus arrhizus [35] = experiment: Fungicidal activity against Rhizopus oryzae 34550 assessed as inhibition of fungal growth incubated for 72 hrs; type: functional
Enterococcus faecalis [36] = experiment: Antibacterial activity against Enterococcus faecalis 10066 assessed as inhibition of bacterial growth incubated for 16 to 20 hrs; type: functional; settings: time 16-20 hrs
Klebsiella oxytoca [37] = experiment: Bactericidal activity against Klebsiella oxytoca 13985 assessed as inhibition of bacterial growth incubated for 16 to 20 hrs in presence of human serum; type: functional; settings: time 16-20 hrs
Escherichia coli [38] = experiment: Antibacterial activity against Escherichia coli 10675 assessed as inhibition of bacterial growth incubated for 16 to 20 hrs in presence of human serum; type: functional; settings: time 16-20 hrs
Salmonella enterica [39] = experiment: Antibacterial activity against Salmonella enterica 15455 assessed as inhibition of bacterial growth incubated for 16 to 20 hrs in presence of human serum; type: functional; settings: time 16-20 hrs
Klebsiella pneumoniae [40] = experiment: Bactericidal activity against Klebsiella pneumoniae TL 297 assessed as inhibition of bacterial growth incubated for 16 to 20 hrs in presence of human serum; type: functional; settings: time 16-20 hrs
Vibrio vulnificus [41] = experiment: Bactericidal activity against Vibrio vulnificus 204 assessed as inhibition of bacterial growth incubated for 16 to 20 hrs in presence of human serum; type: functional; settings: time 16-20 hrs
Yersinia enterocolitica [42] = experiment: Antibacterial activity against Yersinia enterocolitica 13999 assessed as inhibition of bacterial growth incubated for 16 to 20 hrs; type: functional; settings: time 16-20 hrs
[43] = tested on: Staphylococcus haemolyticus; experiment: Bactericidal activity against Staphylococcus haemolyticus 15237 assessed as inhibition of bacterial growth incubated for 16 to 20 hrs; type: functional; settings: time 16-20 hrs
Enterococcus faecium [44] = experiment: Bactericidal activity against Enterococcus faecium 10067 assessed as inhibition of bacterial growth incubated for 16 to 20 hrs in presence of human serum; type: functional; settings: time 16-20 hrs
Klebsiella pneumoniae [45] = experiment: Antibacterial activity against Klebsiella pneumoniae BAA 2473 assessed as inhibition of bacterial growth incubated for 16 to 20 hrs; type: functional; settings: time 16-20 hrs
Pseudomonas aeruginosa [46] = experiment: Antibacterial activity against Pseudomonas aeruginosa 19660 assessed as inhibition of bacterial growth incubated for 16 to 20 hrs in presence of human serum; type: functional; settings: time 16-20 hrs
Pseudomonas aeruginosa [47] = experiment: Antibacterial activity against Pseudomonas aeruginosa 19660 assessed as inhibition of bacterial growth incubated for 16 to 20 hrs; type: functional; settings: time 16-20 hrs
Salmonella typhimurium [48] = experiment: Bactericidal activity against Salmonella typhimurium DT104 assessed as inhibition of bacterial growth incubated for 16 to 20 hrs; type: functional, Salmonella enterica subsp. enterica serovar Typhimurium; settings: Salmonella enterica, time 16-20 hrs
Rhizopus arrhizus [49] = experiment: Antifungal activity against Rhizopus oryzae 34550 assessed as inhibition of fungal growth incubated for 16 to 20 hrs; type: functional; settings: time 16-20 hrs
Staphylococcus aureus [50] = experiment: Bactericidal activity against Staphylococcus aureus 10780 assessed as inhibition of bacterial growth incubated for 16 to 20 hrs; type: functional; settings: time 16-20 hrs
Klebsiella oxytoca [51] = experiment: Bactericidal activity against Klebsiella oxytoca 13985 assessed as inhibition of bacterial growth incubated for 16 to 20 hrs; type: functional; settings: time 16-20 hrs

For C[C@@H](O)[C@H]1C(=O)N2C(C(=O)O)=C(S[C@@H]3CN[C@H](C(=O)N(C)C)C3)[C@H](C)[C@H]12 [MEROPENEM], the MBC (Klebsiella pneumoniae [1]) was 0.2 µM (≈ 0.0767 µg/mL), the MIC (Salmonella typhimurium [2]) was under 0.369 µM and the MBC (Pseudomonas aeruginosa [3]) was 6.25 µM (≈ 2.4 µg/mL). For the same molecule, the MIC (Klebsiella aerogenes [4]) was 0.1 µM (≈ 0.0383 µg/mL), the MBC (Klebsiella pneumoniae [5]) was 400 µM (≈ 153 µg/mL) and the MBC (Klebsiella aerogenes [6]) was 6.25 µM (≈ 2.4 µg/mL). For the same molecule, the MIC (Salmonella typhimurium [7]) was under 1.56 µM, the MBC (Acinetobacter baumannii [8]) was 6.25 µM and the MIC (Klebsiella pneumoniae [9]) was 0.2 µM (≈ 0.0767 µg/mL). The MIC (Klebsiella oxytoca [10]) was under 0.39 µM, the MBC (Pseudomonas aeruginosa [11]) was 6.25 µM and the MBC (Yersinia enterocolitica [12]) was under 1.56 µM. The MIC (Klebsiella pneumoniae [13]) was 200 µM, the MIC (Klebsiella oxytoca [14]) was under 0.39 µM and the MBC (Salmonella enterica [15]) was under 0.39 µM. For the same molecule, the MBC (Salmonella enterica [16]) was under 1.56 µM, the MBC (Escherichia coli [17]) was 0.2 µM (≈ 0.0767 µg/mL) and the MBC (Vibrio vulnificus [18]) was under 0.39 µM. It also gave an MBC (Enterococcus faecalis [19]) of 100 µM (≈ 38.3 µg/mL), an MIC (Vibrio vulnificus [20]) of under 0.39 µM and an MBC (Escherichia coli [21]) of 0.1 µM. It also gave an MIC (Escherichia coli [22]) of 0.2 µM (≈ 0.0767 µg/mL), an MBC (Salmonella typhimurium [23]) of under 0.39 µM and an MBC (Acinetobacter baumannii [24]) of 6.25 µM (≈ 2.4 µg/mL). The MIC (Staphylococcus aureus [25]) was 0.78 µM (≈ 0.299 µg/mL), the MIC (Acinetobacter baumannii [26]) was 3.13 µM and the MBC (Enterococcus faecium [27]) was 100 µM (≈ 38.3 µg/mL). For the same molecule, the MIC (Acinetobacter baumannii [28]) was 6.25 µM (≈ 2.4 µg/mL), the MIC [29] was under 1.56 µM and the MIC (Enterococcus faecium [30]) was 100 µM. It also gave an MIC (Enterococcus faecium [31]) of 50 µM (≈ 19.2 µg/mL), an MIC (Vibrio vulnificus [32]) of under 0.39 µM and an MFC (Rhizopus arrhizus [33]) of 100 µM. For the same molecule, the MIC (Salmonella enterica [34]) was under 1.56 µM, the MFC (Rhizopus arrhizus [35]) was over 100 µM and the MIC (Enterococcus faecalis [36]) was 12.5 µM (≈ 4.79 µg/mL). The MBC (Klebsiella oxytoca [37]) was under 0.39 µM, the MIC (Escherichia coli [38]) was 0.1 µM and the MIC (Salmonella enterica [39]) was under 0.39 µM. For the same molecule, the MBC (Klebsiella pneumoniae [40]) was 400 µM, the MBC (Vibrio vulnificus [41]) was under 0.39 µM and the MIC (Yersinia enterocolitica [42]) was under 1.56 µM. The MBC [43] was under 1.56 µM, the MBC (Enterococcus faecium [44]) was 100 µM and the MIC (Klebsiella pneumoniae [45]) was 800 µM (≈ 307 µg/mL). The MIC (Pseudomonas aeruginosa [46]) was 3.13 µM, the MIC (Pseudomonas aeruginosa [47]) was 3.13 µM (≈ 1.2 µg/mL) and the MBC (Salmonella typhimurium [48]) was over 100 µM. It also gave an MIC (Rhizopus arrhizus [49]) of over 100 µM, an MBC (Staphylococcus aureus [50]) of 3.13 µM (≈ 1.2 µg/mL) and an MBC (Klebsiella oxytoca [51]) of 0.1 µM (≈ 0.0383 µg/mL).
